We go through two compounds from ChEMBL document CHEMBL4819123, “Pulchinenosides: Correlation of surface activity-cytotoxicity and hepatocyte apoptosis mechanism study” (Bioorg Med Chem Lett, 2021).

pIC50: −log10 of the molar value.

Data set [1] relates to L02. The experiment in a line: Induction of apoptosis in human L02 cells assessed as early apoptotic cells at 10 uM by annexin-V-FITC/PI staining based flow cytometry analysis (reference value: 3.81 %). The data set is classed as cell-based. The conditions noted are these: l02, 10 µM. Background: Flow cytometry measures light scatter and fluorescence of single cells or particles in a stream.

Data set [2] concerns L02. The experiment in a line: Induction of apoptosis in human L02 cells assessed as decrease in caspase 9 level at 8 to 12 ug/ml measured after 24 hrs by Western blot analysis. The format is cell-based. The conditions noted are these: l02, 24 h, dose 8-12 µg/ml. (In general: In western blotting, separated proteins are transferred to a membrane and probed.)
Data set [3] deals with L02. The experiment in a line: Induction of cell cycle arrest in human L02 cells assessed as G2/M phase accumulation at 6 uM by PI staining based flow cytometry analysis (reference value: 8 %). The conditions noted are these: l02, 6 µM.
For data set [4], the system named is L02. The experiment in a line: Induction of cell cycle arrest in human L02 cells assessed as S phase accumulation at 6 uM by PI staining based flow cytometry analysis (reference value: 38.23 %). Conditions: l02, 6 µM; call rule not given here.
The test system of data set [5] is L02. The experiment in a line: Induction of apoptosis in human L02 cells assessed as late apoptotic cells at 10 uM by annexin-V-FITC/PI staining based flow cytometry analysis (reference value: 0.92 %). The format is cell-based. The conditions noted are these: l02, 10 µM.
The subject of data set [6] is L02. The experiment in a line: Induction of cell cycle arrest in human L02 cells assessed as G2/M phase accumulation at 10 uM by PI staining based flow cytometry analysis (reference value: 8 %). The conditions noted are these: l02, 10 µM.
In data set [7] the test system is L02. The experiment in a line: Induction of cell cycle arrest in human L02 cells assessed as S phase accumulation at 8 uM by PI staining based flow cytometry analysis (reference value: 38.23 %). The conditions noted are these: l02, 8 µM.
Data set [8] deals with L02. The experiment in a line: Induction of apoptosis in human L02 cells assessed as late apoptotic cells at 8 uM by annexin-V-FITC/PI staining based flow cytometry analysis (reference value: 0.92 %). The format is cell-based. The conditions noted are these: l02, 8 µM.
For data set [9], the system named is L02. The experiment in a line: Induction of apoptosis in human L02 cells assessed as early apoptotic cells at 6 uM by annexin-V-FITC/PI staining based flow cytometry analysis (reference value: 3.81 %). The format is cell-based. Conditions: l02, 6 µM.
Data set [10] has as its system L02. The experiment in a line: Induction of apoptosis in human L02 cells assessed as upregulation of FAS expression at 8 to 12 ug/ml measured after 24 hrs by Western blot analysis. The data set is classed as cell-based. The conditions noted are these: l02, 24 h, dose 8-12 µg/ml.
Data set [11] has as its system L02. The experiment in a line: Induction of cell cycle arrest in human L02 cells assessed as G2/M phase accumulation at 8 uM by PI staining based flow cytometry analysis (reference value: 8 %). The conditions noted are these: l02, 8 µM.
For data set [12], the system named is L02. The experiment in a line: Cytotoxicity against human L02 cells by MTT assay. The data set is classed as cell-based. (Tetrazolium assays rely on reduction of a dye to a coloured formazan, in cell work by metabolically active cells.)
Data set [13] relates to L02. The experiment in a line: Induction of apoptosis in human L02 cells assessed as decrease in ratio of Bcl-2/Bax at 8 to 12 ug/ml measured after 24 hrs by Western blot analysis. The format is cell-based. Conditions: l02, 24 h, dose 8-12 µg/ml.
Data set [14] concerns L02. The experiment in a line: Cytotoxicity against human L02 cells assessed as increase in LDH leakage by LDH assay. The format is cell-based.
In data set [15] the test system is L02. The experiment in a line: Induction of apoptosis in human L02 cells assessed as decrease in caspase 8 level at 8 to 12 ug/ml measured after 24 hrs by Western blot analysis. The data set is classed as cell-based. The conditions noted are these: l02, 24 h, dose 8-12 µg/ml.
Data set [16] relates to L02. The experiment in a line: Induction of cell cycle arrest in human L02 cells assessed as G0/G1 phase accumulation at 8 uM by PI staining based flow cytometry analysis (reference value: 53.77 %). Conditions: l02, 8 µM.
The subject of data set [17] is L02. The experiment in a line: Induction of cell cycle arrest in human L02 cells assessed as G0/G1 phase accumulation at 10 uM by PI staining based flow cytometry analysis (reference value: 53.77 %). The conditions noted are these: l02, 10 µM.
Data set [18] has as its system L02. The experiment in a line: Induction of apoptosis in human L02 cells assessed as early apoptotic cells at 8 uM by annexin-V-FITC/PI staining based flow cytometry analysis (reference value: 3.81 %). The data set is classed as cell-based. The conditions noted are these: l02, 8 µM.
Data set [19] concerns L02. The experiment in a line: Induction of cell cycle arrest in human L02 cells assessed as S phase accumulation at 10 uM by PI staining based flow cytometry analysis (reference value: 38.23 %). Conditions: l02, 10 µM.
Data set [20] is described as follows: Hemolytic activity in rabbit erythrocytes. The data set is classed as ADME, cell-based, Oryctolagus cuniculus, Erythrocyte. The conditions noted are these: read-out: HD50 (the source's name).
In data set [21] the test system is L02. The experiment in a line: Induction of apoptosis in human L02 cells assessed as late apoptotic cells at 6 uM by annexin-V-FITC/PI staining based flow cytometry analysis (reference value: 0.92 %). The data set is classed as cell-based. Conditions: l02, 6 µM.
For data set [22], the system named is L02. The experiment in a line: Induction of apoptosis in human L02 cells assessed as increase in cleaved caspase 8 level at 8 to 12 ug/ml measured after 24 hrs by Western blot analysis. The format is cell-based. The conditions noted are these: l02, 24 h, dose 8-12 µg/ml.
The nature of data set [23]: Oil-water partition coefficient, logP of compound. The data set is classed as physicochemical.
For data set [24], the system named is L02. The experiment in a line: Induction of cell cycle arrest in human L02 cells assessed as G0/G1 phase accumulation at 6 uM by PI staining based flow cytometry analysis (reference value: 53.77 %). The conditions noted are these: l02, 6 µM.
Data set [25] concerns L02. The experiment in a line: Induction of cell cycle arrest in human L02 cells assessed as G0/G1 phase accumulation at 24 uM by PI staining based flow cytometry analysis (reference value: 53.77 %). The conditions noted are these: l02, 24 µM.
Data set [26] deals with L02. The experiment in a line: Induction of cell cycle arrest in human L02 cells assessed as G2/M phase accumulation at 24 uM by PI staining based flow cytometry analysis (reference value: 8 %). Conditions: l02, 24 µM.
The test system of data set [27] is L02. The experiment in a line: Induction of cell cycle arrest in human L02 cells assessed as G2/M phase accumulation at 26 uM by PI staining based flow cytometry analysis (reference value: 8 %). Conditions: l02, 26 µM.
The subject of data set [28] is L02. The experiment in a line: Induction of cell cycle arrest in human L02 cells assessed as G0/G1 phase accumulation at 26 uM by PI staining based flow cytometry analysis (reference value: 53.77 %). The conditions noted are these: l02, 26 µM.
In data set [29] the test system is L02. The experiment in a line: Induction of cell cycle arrest in human L02 cells assessed as G2/M phase accumulation at 18 uM by PI staining based flow cytometry analysis (reference value: 8 %). Conditions: l02, 18 µM.
In data set [30] the test system is L02. The experiment in a line: Induction of cell cycle arrest in human L02 cells assessed as G0/G1 phase accumulation at 18 uM by PI staining based flow cytometry analysis (reference value: 53.77 %). The conditions noted are these: l02, 18 µM.
Data set [31] relates to L02. The experiment in a line: Induction of apoptosis in human L02 cells assessed as early apoptotic cells at 18 uM by annexin-V-FITC/PI staining based flow cytometry analysis (reference value: 3.81 %). The conditions noted are these: l02, 18 µM. The format is cell-based.
Data set [32] concerns L02. The experiment in a line: Induction of apoptosis in human L02 cells assessed as late apoptotic cells at 18 uM by annexin-V-FITC/PI staining based flow cytometry analysis (reference value: 0.92 %). The format is cell-based. The conditions noted are these: l02, 18 µM.
Data set [33] deals with L02. The experiment in a line: Induction of apoptosis in human L02 cells assessed as early apoptotic cells at 26 uM by annexin-V-FITC/PI staining based flow cytometry analysis (reference value: 3.81 %). The data set is classed as cell-based. Conditions: l02, 26 µM.
Data set [34] has as its system L02. The experiment in a line: Induction of cell cycle arrest in human L02 cells assessed as S phase accumulation at 18 uM by PI staining based flow cytometry analysis (reference value: 38.23 %). Conditions: l02, 18 µM.
Data set [35] relates to L02. The experiment in a line: Induction of apoptosis in human L02 cells assessed as early apoptotic cells at 24 uM by annexin-V-FITC/PI staining based flow cytometry analysis (reference value: 3.81 %). The format is cell-based. Conditions: l02, 24 µM.
For data set [36], the system named is L02. The experiment in a line: Induction of cell cycle arrest in human L02 cells assessed as S phase accumulation at 24 uM by PI staining based flow cytometry analysis (reference value: 38.23 %). The conditions noted are these: l02, 24 µM.
In data set [37] the test system is L02. The experiment in a line: Induction of cell cycle arrest in human L02 cells assessed as S phase accumulation at 26 uM by PI staining based flow cytometry analysis (reference value: 38.23 %). The conditions noted are these: l02, 26 µM.
The test system of data set [38] is L02. The experiment in a line: Induction of apoptosis in human L02 cells assessed as late apoptotic cells at 26 uM by annexin-V-FITC/PI staining based flow cytometry analysis (reference value: 0.92 %). The format is cell-based. The conditions noted are these: l02, 26 µM.
The subject of data set [39] is L02. The experiment in a line: Induction of apoptosis in human L02 cells assessed as late apoptotic cells at 24 uM by annexin-V-FITC/PI staining based flow cytometry analysis (reference value: 0.92 %). The format is cell-based. The conditions noted are these: l02, 24 µM.

The term pIC50 denotes the negative decadic logarithm of the IC50, by convention in mol/L. Low readings indicate a high IC50, high ones a low IC50. As usually defined, the logP is a log measure of how a compound divides between an organic and an aqueous phase. A lower logP goes with a more hydrophilic compound. In the case of `C[C@H]1O[C@@H](O[C@@H]2[C@@H](O)[C@@H](CO)O[C@H](O[C@@H]3[C@H](O)[C@@H](O)[C@H](O[C@H]4CC[C@]5(C)[C@H]6CC=C7[C@@H]8CC(C)(C)CC[C@]8(C(=O)O)CC[C@@]7(C)[C@]6(C)CC[C@H]5C4(C)C)O[C@@H]3CO)[C@@H]2O)[C@H](O[C@@H]2OC[C@@H](O)[C@@H](O)[C@@H]2O)[C@@H](O)[C@@H]1O`, the Activity is listed as 1.92% in the data set on L02 [1]; “Toxic” in the data set on L02 [2]; 8% in the data set on L02 [3]; 34.56% in the data set on L02 [4]; 92.2% with L02 [5]; 0.45% with L02 [6]. Besides, the Activity is recorded as 35.95% in the data set on L02 [7]; 54.1% in the data set on L02 [8]; 7.62% in the data set with L02 [9]; “Toxic” in the data set with L02 [10]; 3.8% in the data set with L02 [11]; “Toxic” with L02 [13]. Also, the Activity entry in the data set with L02 [14] is on record as “Toxic”; in the data set on L02 [15], “Toxic”; with L02 [16] it was 60.25%; in the data set on L02 [17], 67.43%; in the data set with L02 [18] it was 23.4%; with L02 [19], 32.14%. Besides, the Activity in the data set on L02 [21] is listed as 7.91%; in the data set with L02 [22], “Toxic”; in the data set with L02 [24], 57.44%. This compound also showed a pIC50 in the data set with L02 [12] of 5.02. Further, the HC50 in [20] is 2.49 µM. The logP in data set [23] is -0.0114.

As to `C[C@@H]1O[C@@H](O[C@H]2[C@H](O[C@H]3CC[C@]4(C)[C@H]5CC=C6[C@@H]7CC(C)(C)CC[C@]7(C(=O)O)CC[C@@]6(C)[C@]5(C)CC[C@H]4C3(C)C)OC[C@H](O)[C@@H]2O)[C@H](O)[C@H](O)[C@H]1O`, the Activity with L02 [25] turned out to be 64%; in the data set on L02 [26], 1.72%; with L02 [27], 4.73%; in the data set on L02 [28], 51.19%; in the data set with L02 [29] it was 0.31%; in the data set on L02 [30], 69.09%. Further, the Activity is 8.4% in the data set on L02 [31]; “Toxic” in the data set on L02 [14]; 3.82% in the data set on L02 [32]; 54.9% with L02 [33]; 30.6% in the data set with L02 [34]; 12.1% in the data set with L02 [35]. In addition, the Activity is 36.28% in the data set on L02 [36], 44.08% in the data set on L02 [37], 8.41% in the data set on L02 [38] and 6.93% in the data set with L02 [39]. This compound also had a pIC50 with L02 [12] of 4.64. Also, the HC50 in [20] was 7.46 µM. This compound returned a logP in data set [23] of 0.244.
